Structures are written as SMILES. Marks after values point to notes of the source that are not given here.

This data set concerns A431 human epidermoid carcinoma xenografts. The data set can be described thus: DCE-MRI with B22956/1 in A431 xenografts 24 h after PTX or vehicle (Example 5). Format: in vivo, NCR athymic nude mice. The procedure:
Human epidermoid carcinoma cell line (A431) (supplied by ATCC) were cultured in DMEM (Dulbecco's Modified Eagle Medium) High Glucose medium (4.5 g/L glucose) (Sigma-Aldrich, Steinheim, Germany), supplemented with 10% heat-inactivated foetal bovine serum (Lonza, Verviers, Belgium), 2 mM glutamine (Lonza, Verviers, Belgium), 100 IU/mL penicillin and 100 μg/mL streptomycin (Lonza, Verviers, Belgium) and maintained in a humidified atmosphere with 5% CO2 at 37° C. Exponentially growing cells were harvested and washed two times with PBS. Two million A431 cells were resuspended in 0.1 mL PBS and injected subcutaneously in the right and left flank of each of the 6 week old female mice. Tumors development were followed daily after inoculation, initially by palpation and by caliper once the mass will be established, until the day of the sacrifice. Mice were distributed randomly into 2 groups (Treated and Control) on the day of initial drug treatment when the average tumor diameter reached 7-8 mm, measured by caliper.
Paclitaxel (PTX) (Indena S.p.A., Milan, Italy): PTX solution was prepared in 50% Cremophor EL and 50% ethanol as described in Example 4 and further diluted in saline immediately before use to a final concentration of 2 mg/mL. PTX was administered intravenously (i.v., singular administration) at a dose of 20 mg/kg.
To this extent, 8 mice were divided into 2 groups; 2 animals of each of the two obtained groups were treated with PTX and 2 with vehicle (CTRL). Treatments started 14 days after the tumor implant, when the tumor reached a diameter in the range 7-8 mm, measured by caliper. The animals were administered with PTX or with CTRL at day 14 from the tumor implant (considered as DAY1). 24 hours after the treatment with PTX or CTRL (DAY2) each animal was injected with B22956/1 (used as non-limiting example of contrast agent according to the invention) and imaged with DCE-MRI. MRI imaging was performed pre-contrast and at different time points post-contrast agents administration. […] At DAY3 all the mice were imaged in vivo by Optical Imaging (01); then FITC-Albumin (10 mg/mL) was injected and 5 minutes later the animals were sacrificed. Tumors were excised and a second Optical Imaging acquisition was performed ex vivo. Finally tumors were prepared for the histological examination.
B22956/1, (Bracco Imaging S.p.A., obtained as above referred) was used as MRI contrast agent (CA). B22956/1 was intravenously injected at the dose of 100 μmol/kg, with an administration volume of 4 mL/kg.
24 hours after the treatment with PTX or CTRL each animal was injected with the CA (B22956/1) and imaged with DCE-MRI. The contrast agent was injected intravenously at an injection rate of about 1 mL/min through a catheter placed in the tail vein of the animal. For MR imaging experiments, animals were pre-anaesthetized with isofluorane gas (about 1%) in a mixture of 33% O2 and 66% N2O and the anesthesia was then maintained by adjustment of gas level in function of breath rate. MRI imaging was performed at different time points post-contrast agents administration. In particular, pre-contrast coronal and axial Rare T2-weighted anatomical images were acquired with the optimized parameters for high resolution with a good contrast, to detect the tumour mass. 3D FLASH images (Fast Low Angle Shot; TR about 6-7 milliseconds) with variable flip angle θ (FA=5-90° were acquired before contrast agent injection to estimate the tumour and muscle longitudinal relaxation time by using matrix 128×128×8, slice thickness ˜1.5 mm, FOV ˜3.0×3.0 cm. The same sequences (FA=20°, TR about 6-7 milliseconds) were then acquired to follow CA dynamic in tumor and blood vessels after CA i.v. injection. Flow artifacts were avoided by placing two thick saturation bands just above and below the measured slices. […]

[1] abbreviates: A431 tumors 24 h after PTX 20 mg/kg i.v., mean of 8 tumors.

In the case of `C[C@H](CCC(=O)[O-])[C@H]1CC[C@H]2[C@@H]3CC[C@@H]4C[C@@H](NC(=O)CC[C@@H](C(=O)[O-])N(CCN(CC(=O)[O-])CC(=O)[O-])CCN(CC(=O)[O-])CC(=O)[O-])CC[C@]4(C)[C@H]3C[C@H](O)[C@]12C.[Gd+3].[Na+].[Na+].[Na+]` [B22956/1, Gadocoletic acid trisodium salt], where the note is “mouse, in vivo”, the “extravasation of the contrast agent within the first minute after injection” value was “negligible”.

Take `CC(=O)O[C@H]1C(=O)[C@@]2(C)[C@H]([C@H](OC(=O)c3ccccc3)[C@]3(O)C[C@H](OC(=O)[C@H](O)[C@@H](NC(=O)c4ccccc4)c4ccccc4)C(C)=C1C3(C)C)[C@]1(OC(C)=O)CO[C@@H]1C[C@@H]2O` [PTX, Paclitaxel]: the “AUC10.20 (of B22956/1), Mean” value (A431 tumors 24 h after PTX 20 mg/kg i.v., 10 to 20 min post injection, mean of 8 tumors) is recorded as 27*. Further, under “A431 tumors 24 h after PTX 20 mg/kg i.v., 20 to 30 min post injection, mean of 8 tumors”, the “AUC20.30 (of B22956/1), Mean” value is reported as 25.3**. For the same compound, the “ktrans (of B22956/1), Mean” value (A431 tumors 24 h after PTX 20 mg/kg i.v., B22956/1 100 μmol/kg, mean of 8 tumors) is reported as 0.0255*. Under setting [1], the “AVGENH (of B22956/1), Mean” value is listed as 54*; the “EARLYAUCRATIO (of B22956/1), Mean” value turned out to be 0.036; the “IAUC1 (of B22956/1), Mean” value is on record as 0.8; the “LATEAUCRATIO (of B22956/1), Mean” value is given as 1.14**. Further, under setting [1], the “fPV (of B22956/1), Mean” value is listed as 0.038 and the “kep (of B22956/1), Mean” value was 0.112.

Source of the values: patent US9952300B2, “Dynamic contrast enhanced MRI method and agents for the assessment of the macromolecular transport within pathologic tissues” (BRACCO IMAGING S.P.A., priority 2012, dated 2018).
